Drawing on patent US20260015344A1, “PAN-KRAS INHIBITORS” (Mirati Therapeutics, Inc., priority 2022, published 2026), this text covers IC50 for 3 compounds.

Assay [1] addresses T1, KRas^G12A (Homo sapiens, UniProt P01116, G12A).
T1 construct: corresponding to amino acids 1-169, produced at Accelegan Inc; biotin (biotinylated); purchased Accelegan Inc
As to the kind of experiment: KRas Binding Assay (TR-FRET displacement), KRas G12A. The following applies: TR-FRET tracer displacement. The protocol: (§1) This Example illustrates that exemplary compounds of the present invention bind to KRas and are capable of displacing a labeled tracer ligand occupying the KRas binding site. KRas^WT, KRas^G12A, KRas^G12C, KRas^G12D, KRas^G12R, KRas^G12S, KRas^G12V, KRas^G13D, or KRas^Q61H was used in the assay.
(§2) The ability of a compound to bind to KRas was measured using a TR-FRET displacement assay. Biotinylated KRas (corresponding to amino acids 1-169, produced at Accelegan Inc.) was incubated with custom made Cy5 labelled tracer, terbium streptavidin (Cisbio Inc.) and compound (1% DMSO final) in buffer (50 mM HEPES, pH 7.5, 5 mM MgCl2, 0.005% Tween-20 and 1 mM DTT). After a 60-minute incubation at room temperature, the reaction was measured using a BMG LABTECH CLARIO star Plus via TR-FRET. […] The POC values were fit to a 4-parameter IC50 equation and the IC50 value reported.
(Time-resolved FRET reads energy transfer from a long-lived donor to a nearby acceptor.)

In assay [2] the target is T2, KRas^Q61H (Homo sapiens, UniProt P01116, Q61H).
T2 construct: corresponding to amino acids 1-169, produced at Accelegan Inc; biotin (biotinylated); purchased Accelegan Inc
The assay can be described thus: KRas Binding Assay (TR-FRET displacement), KRas Q61H. The following applies: TR-FRET tracer displacement. The protocol: as §1, §2

The target in assay [3] is T3, KRas^G13D (Homo sapiens, UniProt P01116, G13D).
T3 construct: corresponding to amino acids 1-169, produced at Accelegan Inc; biotin (biotinylated); purchased Accelegan Inc
As to the kind of experiment: KRas Binding Assay (TR-FRET displacement), KRas G13D. The settings on record: TR-FRET tracer displacement. As to the method: as §1, §2

For assay [4], the target named is T4, KRas^G12D (Homo sapiens, UniProt P01116, G12D).
T4 construct: corresponding to amino acids 1-169, produced at Accelegan Inc; biotin (biotinylated); purchased Accelegan Inc
The assay can be described thus: KRas Binding Assay (TR-FRET displacement), KRas G12D. The following applies: TR-FRET tracer displacement. As to the method: as §1, §2

The subject of assay [5] is KRas-mediated Phosphorylation of ERK in H727 cells. As to the kind of experiment: HTRF pERK assay, H727 cells. The following applies: Homo sapiens, NCI-H727, 3 hrs compound incubation, read-out: Inhibition (HTRF IC50 nM) of KRas-mediated Phosphorylation of ERK, H727. The assay is classed as cell-based. As to the method: (§3) • Day 1: Seed 6,000 cells/well-25 μl/well in 384-well white solid bottom plate; RPM1_10% FBS.
(§4) • 1. To harvest cells from flask using 0.05% Trypsin/EDTA solution. Add 10 mL of media to stop trypsinizing. Pipette the cells into a conical bottom 50 mL centrifuge tube and centrifuge 5 min×1000 rpm. • 2. Re-suspend the cell pellet in media, take a cell count, and then adjust the cell density using fresh media. • 3. Seed 6,000 cells into cell culture plate with 50 μL media. The • 4. Incubate cell plate overnight in a 37° C., 5% CO2 incubator.
(§5) • 1. Use Tecan to complete the compound addition. Compounds start from 10 uM top, 3-fold dilution, and 10 doses. The final DMSO concentration is 0.8%. Dispensed 0.2 uM Trametinib as Min control. • 2. Incubate cell plate for 3 hrs in the incubator. Detection with Cisbio pERK HTRF Kit • 1. Dilute 1 volume of 4× lysis buffer with 3 volumes of deionized water. Then, add 100× the blocking reagent. Keep lysis buffer on the ice. • 2. At the end of the compound treatment, flick-off the media. • 3. Add 35 μL of lysis buffer per well using a Multidrop Combi. Then place on a plate agitator shaking at 300 rpm at 4° C. for 40 mins. • 4. Make up the HTRF antibody buffer. For each assay plate, mix 50 μL of d2-conjugate antibody with 950 μL of detection buffer. Similarly, mix 50 μL of Cryptate antibody with 950 μL of detection buffer. Then mix the two diluted antibodies together. • 5. Dispense 3.4 μL the antibody buffer to wells of an empty assay plate. Seal the plate and centrifuge plate 30 sec×1000 rpm. • 6. At the end of the 4° C. lysis, centrifuge the lysate plates 3 mins×1500 rpm. • 7. Use the Bravo to transfer 13.6 μL of lysate from cell culture plate to assay plate. Then incubate assay plate for 2 hrs at room temperature. • 8. At the end of incubation, read plate on the Envision after centrifuging plate 30 sec×1000 rpm.

In assay [6] the target is T5, KRas^G12S (Homo sapiens, UniProt P01116, G12S).
T5 construct: corresponding to amino acids 1-169, produced at Accelegan Inc; biotin (biotinylated); purchased Accelegan Inc
The assay can be described thus: KRas Binding Assay (TR-FRET displacement), KRas G12S. The settings on record: TR-FRET tracer displacement. As to the method:
as §1, §2

For assay [7], the target named is T6, KRas^WT (Homo sapiens, UniProt P01116).
T6 construct: corresponding to amino acids 1-169, produced at Accelegan Inc; biotin (biotinylated); purchased Accelegan Inc
As to the kind of experiment: KRas Binding Assay (TR-FRET displacement), KRas WT. The following applies: TR-FRET tracer displacement. As to the method:
as §1, §2

Assay [8] addresses T7, KRas^G12V (Homo sapiens, UniProt P01116, G12V).
T7 construct: corresponding to amino acids 1-169, produced at Accelegan Inc; biotin (biotinylated); purchased Accelegan Inc
As to the kind of experiment: KRas Binding Assay (TR-FRET displacement), KRas G12V. The following applies: TR-FRET tracer displacement. The protocol:
as §1, §2

Assay [9] deals with T8, KRas^G12C (Homo sapiens, UniProt P01116, G12C).
T8 construct: corresponding to amino acids 1-169, produced at Accelegan Inc; biotin (biotinylated); purchased Accelegan Inc
As to the kind of experiment: KRas Binding Assay (TR-FRET displacement), KRas G12C. The following applies: TR-FRET tracer displacement. As to the method: as §1, §2

The subject of assay [10] is KRas-mediated Phosphorylation of ERK in AsPC-1 cells. As to the kind of experiment: HTRF pERK assay, AsPC-1 cells. The following applies: Homo sapiens, ASPC1, 3 hrs compound incubation, read-out: Inhibition (HTRF IC50 nM) of KRas-mediated Phosphorylation of ERK, AsPC-1. The assay is classed as cell-based. The protocol:
as §3, §4, §5

The target of assay [11] is T9, KRas^G12R (Homo sapiens, UniProt P01116, G12R).
T9 construct: corresponding to amino acids 1-169, produced at Accelegan Inc; biotin (biotinylated); purchased Accelegan Inc
The assay can be described thus: KRas Binding Assay (TR-FRET displacement), KRas G12R. The settings on record: TR-FRET tracer displacement. The protocol:
as §1, §2

The subject of assay [12] is KRas-mediated Phosphorylation of ERK in H358 cells. As to the kind of experiment: HTRF pERK assay, H358 cells. Format: cell-based. The following applies: Homo sapiens, NCI-H358, 3 hrs compound incubation, read-out: Inhibition (HTRF IC50 nM) of KRas-mediated Phosphorylation of ERK, H358. As to the method: as §3, §4
as §5, with “Similarly, mix 50 μL of Cryptate antibody with 950 μL of detection buffer. Then mix the two diluted antibodies together. • 5. Dispense 3.4 μL the antibody buffer to wells of an empty assay plate. Seal the plate and centrifuge plate 30 sec×1000 rpm. • 6. At the end of the 4° C. lysis, centrifuge the lysate plates 3 mins×1500 rpm. • 7. Use the Bravo to transfer 13.6 μL of lysate from cell culture plate to assay plate. Then incubate assay plate for 2 hrs at room temperature. • 8.” left out

The subject of assay [13] is KRas-mediated Phosphorylation of ERK in A549 cells. The assay can be described thus: HTRF pERK assay, A549 cells. Format: cell-based. The settings on record: Homo sapiens, 3 hrs compound incubation, read-out: Inhibition (HTRF IC50 nM) of KRas-mediated Phosphorylation of ERK, A549. As to the method: as §3, §4
as §5, with “Similarly, mix 50 μL of Cryptate antibody with 950 μL of detection buffer. Then mix the two diluted antibodies together. • 5. Dispense 3.4 μL the antibody buffer to wells of an empty assay plate. Seal the plate and centrifuge plate 30 sec×1000 rpm. • 6. At the end of the 4° C. lysis, centrifuge the lysate plates 3 mins×1500 rpm. • 7. Use the Bravo to transfer 13.6 μL of lysate from cell culture plate to assay plate. Then incubate assay plate for 2 hrs at room temperature. • 8.” left out

In assay [14] the test system is KRas-mediated Phosphorylation of ERK in MKN1 cells. The assay can be described thus: HTRF pERK assay, MKN1 cells. Format: cell-based. The following applies: Homo sapiens, MKN-1, 3 hour compound incubation, read-out: Inhibition (HTRF IC50 nM) of KRas-mediated Phosphorylation of ERK, MKN1. As to the method: Cisbio HTRF Advanced pERK Assay Catalog #64AERPEH • Cells: MKN1, PSN1
as §3

In assay [15] the test system is KRas-mediated Phosphorylation of ERK in H2009 cells. As to the kind of experiment: HTRF pERK assay, H2009 cells. The assay is classed as cell-based. The following applies: Homo sapiens, NCI-H2009; H2009 cells by column count (c8); may be PSN1; read-out: Inhibition (HTRF IC50 nM) of KRas-mediated Phosphorylation of ERK, H2009.
Assay [16] relates to KRas-mediated Phosphorylation of ERK in H460 cells. As to the kind of experiment: HTRF pERK assay, H460 cells. The assay is classed as cell-based. The following applies: Homo sapiens, NCI-H460, 3 hrs compound incubation, read-out: Inhibition (HTRF IC50 nM) of KRas-mediated Phosphorylation of ERK, H460. As to the method: as §3, §4
as §5, with “Similarly, mix 50 μL of Cryptate antibody with 950 μL of detection buffer. Then mix the two diluted antibodies together. • 5. Dispense 3.4 μL the antibody buffer to wells of an empty assay plate. Seal the plate and centrifuge plate 30 sec×1000 rpm. • 6. At the end of the 4° C. lysis, centrifuge the lysate plates 3 mins×1500 rpm. • 7. Use the Bravo to transfer 13.6 μL of lysate from cell culture plate to assay plate. Then incubate assay plate for 2 hrs at room temperature. • 8.” left out

For assay [17], the system named is KRas-mediated Phosphorylation of ERK in HCT116 cells. The assay can be described thus: HTRF pERK assay, HCT116 cells. Format: cell-based. The settings on record: Homo sapiens, HCT-116, 3 hrs compound incubation, read-out: Inhibition (HTRF IC50 nM) of KRas-mediated Phosphorylation of ERK, HCT116. The protocol: as §3, §4
as §5, with “Similarly, mix 50 μL of Cryptate antibody with 950 μL of detection buffer. Then mix the two diluted antibodies together. • 5. Dispense 3.4 μL the antibody buffer to wells of an empty assay plate. Seal the plate and centrifuge plate 30 sec×1000 rpm. • 6. At the end of the 4° C. lysis, centrifuge the lysate plates 3 mins×1500 rpm. • 7. Use the Bravo to transfer 13.6 μL of lysate from cell culture plate to assay plate. Then incubate assay plate for 2 hrs at room temperature. • 8.” left out

T9 sequence (P01116 1-169 isoform P01116-2 G12R): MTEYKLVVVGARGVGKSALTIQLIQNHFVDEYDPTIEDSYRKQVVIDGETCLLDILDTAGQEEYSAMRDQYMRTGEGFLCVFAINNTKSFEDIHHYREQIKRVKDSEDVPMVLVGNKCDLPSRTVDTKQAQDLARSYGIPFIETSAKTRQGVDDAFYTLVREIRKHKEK
T7 sequence (P01116 1-169 isoform P01116-2 G12V): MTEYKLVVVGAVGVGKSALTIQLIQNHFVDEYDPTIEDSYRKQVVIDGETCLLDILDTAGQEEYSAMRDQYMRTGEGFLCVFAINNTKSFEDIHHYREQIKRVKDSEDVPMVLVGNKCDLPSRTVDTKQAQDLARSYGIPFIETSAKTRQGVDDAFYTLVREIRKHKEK
T4 sequence (P01116 1-169 isoform P01116-2 G12D): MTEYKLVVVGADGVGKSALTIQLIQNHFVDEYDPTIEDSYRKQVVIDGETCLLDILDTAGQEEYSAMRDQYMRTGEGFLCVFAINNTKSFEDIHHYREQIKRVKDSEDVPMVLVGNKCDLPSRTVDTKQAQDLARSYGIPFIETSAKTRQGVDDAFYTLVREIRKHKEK
T8 sequence (P01116 1-169 isoform P01116-2 G12C): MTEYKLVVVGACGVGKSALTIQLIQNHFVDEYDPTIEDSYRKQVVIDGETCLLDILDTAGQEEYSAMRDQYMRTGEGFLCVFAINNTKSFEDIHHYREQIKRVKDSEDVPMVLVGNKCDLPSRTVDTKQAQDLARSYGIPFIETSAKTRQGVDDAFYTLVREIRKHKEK
T3 sequence (P01116 1-169 isoform P01116-2 G13D): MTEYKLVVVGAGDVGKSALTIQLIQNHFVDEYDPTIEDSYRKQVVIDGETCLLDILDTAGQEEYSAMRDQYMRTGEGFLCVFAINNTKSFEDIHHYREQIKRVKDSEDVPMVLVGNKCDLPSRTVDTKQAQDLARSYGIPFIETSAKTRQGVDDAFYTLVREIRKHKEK
T5 sequence (P01116 1-169 isoform P01116-2 G12S): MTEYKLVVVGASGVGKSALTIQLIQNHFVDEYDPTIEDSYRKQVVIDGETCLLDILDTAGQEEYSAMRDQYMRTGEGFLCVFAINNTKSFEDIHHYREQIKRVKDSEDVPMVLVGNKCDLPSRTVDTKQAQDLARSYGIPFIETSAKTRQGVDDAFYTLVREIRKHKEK
T2 sequence (P01116 1-169 isoform P01116-2 Q61H): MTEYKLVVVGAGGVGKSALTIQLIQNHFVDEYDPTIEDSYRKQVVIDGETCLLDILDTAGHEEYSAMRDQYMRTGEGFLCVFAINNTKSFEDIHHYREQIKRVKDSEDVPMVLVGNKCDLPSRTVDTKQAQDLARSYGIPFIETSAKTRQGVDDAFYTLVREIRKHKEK
T6 sequence (P01116 1-169 isoform P01116-2): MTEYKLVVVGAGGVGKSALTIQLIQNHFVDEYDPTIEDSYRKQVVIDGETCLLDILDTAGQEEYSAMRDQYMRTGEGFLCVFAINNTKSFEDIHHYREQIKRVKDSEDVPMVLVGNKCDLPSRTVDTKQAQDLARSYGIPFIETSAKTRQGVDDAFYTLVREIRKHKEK
T1 sequence (P01116 1-169 isoform P01116-2 G12A): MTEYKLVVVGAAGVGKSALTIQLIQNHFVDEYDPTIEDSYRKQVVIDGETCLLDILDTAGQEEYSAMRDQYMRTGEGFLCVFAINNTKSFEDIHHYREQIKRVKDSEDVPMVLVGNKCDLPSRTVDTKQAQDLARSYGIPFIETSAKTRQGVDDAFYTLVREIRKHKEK

One may read the IC50 as the concentration that inhibits the measured activity by half. For `C[C@H](Oc1nc(-c2cc(C3(C)CCCc4sc(N)c(C#N)c43)sn2)cc(N2C[C@H]3CC[C@@H](C2)N3)n1)[C@@H]1CCCN1C` (stereo partly drawn) [Example 9, 4-(3-(6-((1R,5S)-3,8-diazabicyclo[3.2.1]octan-3-yl)-2-((S)-1-((S)-1-methylpyrrolidin-2-yl)ethoxy)pyrimidin-4-yl)isothiazol-5-yl)-2-amino-4-methyl-4,5,6,7-tetrahydrobenzo[b]thiophene-3-carbonitrile], the concentration for half-maximal inhibition (IC50) is 3080 nM in [1]; 2290 nM in [2]; 1320 nM in assay [3]; 36 nM in [4]; at least 10000 nM in assay [5]; 3420 nM in assay [6]. Moreover, the IC50 in [7] was 566 nM; in [8], 1040 nM; in assay [9] it was 3490 nM; in [10], 3010 nM; in assay [11], 1340 nM.
In the case of `C[C@H](Oc1nc(-c2cc(C3(C)CCCc4sc(N)c(C#N)c43)sn2)cc(N2CCCC3(CNS(=O)(=O)N3)C2)n1)[C@@H]1CCCN1C` (stereo partly drawn) [Example 10, 2-amino-4-(3-(6-(2,2-dioxido-2-thia-1,3,7-triazaspiro[4.5]decan-7-yl)-2-((S)-1-((S)-1-methylpyrrolidin-2-yl)ethoxy)pyrimidin-4-yl)isothiazol-5-yl)-4-methyl-4,5,6,7-tetrahydrobenzo[b]thiophene-3-carbonitrile], the IC50 is 35 nM in [1]; 216 nM in [12]; 9 nM in [2]; 727 nM in assay [13]; 24 nM in [3]; 10 nM in [14]. The half-maximal inhibitory concentration (IC50) in assay [4] is 3 nM; in assay [5], 3900 nM; in assay [6] it was 25 nM; in assay [7], 31 nM; in [15] it was 9300 nM; in assay [8] it was 4 nM. For the same compound, the IC50 was 15 nM in [9]; 898 nM in assay [10]; 288 nM in assay [16]; 962 nM in assay [17]; below 2 nM in assay [11].
`C[C@H](Oc1nc(-c2noc(C3(C)CCCc4sc(N)c(C#N)c43)n2)cc(N2CCOCC(C)(O)C2)n1)[C@@H]1CCCN1C` (stereo partly drawn) [Example 13, 2-amino-4-(3-(6-(6-hydroxy-6-methyl-1,4-oxazepan-4-yl)-2-((S)-1-((S)-1-methylpyrrolidin-2-yl)ethoxy)pyrimidin-4-yl)-1,2,4-oxadiazol-5-yl)-4-methyl-4,5,6,7-tetrahydrobenzo[b]thiophene-3-carbonitrile]: the half-maximal inhibitory concentration (IC50) in [12] is 43 nM; in [13] it was 689 nM; in [14], 44 nM; in [4] it was 11 nM; in assay [5], 469 nM; in assay [15], above 10000 nM. Further, the IC50 in assay [8] was 6 nM; in assay [10], 507 nM; in assay [16], 394 nM; in assay [17], 899 nM; in assay [11] it was 4 nM.
